Like-named read-outs stand apart in the source and are kept apart here.
What was measured:
[1] = 25 days at 29+/−1° C., cited from earlier work
[2] = Stability of azadirachtin A in a formulation, accelerated storage test and real time conditions; assay type: physicochemical
Experimental: The behavior of azadirachtin in real time and in accelerated conditions (especially at 54° C.) is quite different.

SMILES: C/C=C(\C)C(=O)O[C@H]1C[C@@H](OC(C)=O)[C@@]2(C(=O)OC)CO[C@H]3[C@@H](O)[C@@](C)([C@]45O[C@@]4(C)[C@@H]4C[C@H]5O[C@@H]5OC=C[C@@]54O)[C@H]4[C@]1(CO[C@]4(O)C(=O)OC)[C@@H]32 [azadirachtin A]
- degradation of azadirachtin A ([1]; in ethanol and water): about 80%
- degradation of azadirachtin A ([1]; in methanol and acetone): 50%
- degradation of azadirachtin A ([1]; in methylene chloride, carbon tetrachloride and chloroform): 75-80%
- degradation of azadirachtin A ([2]; accelerated storage test at 54° C., after 14 days): 66%
- degradation of azadirachtin A per month ([2]; real time conditions at 20° C.): approximately 0.9 % per month
- total degradation of azadirachtin A per year ([2]; real time conditions at 20° C.): 11 % per year

Source: patent publication US6811790B1, “Storage stable pesticide formulations containing azadirachtin” (E.I.D. Parry (India) Ltd., priority 2000, dated 2004)
